Data on 7 compounds can be found in patent US20250228239A1, “MOLECULES HAVING PESTICIDAL UTILITY, AND INTERMEDIATES, COMPOSITIONS, AND PROCESSES, RELATED THERETO” (priority 2024, published 2025).

Where two headings read alike, the source gives them in different places.

Holding throughout (assay type): in vivo
For series [1], the system named is Yellow Fever Mosquito (Aedes aegypti, AEDSAE). Conditions: for YFM rating: Table ABC / ABC-DP rating. An outline of the steps:
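Compounds from 4000 ppm DMSO stocks were diluted in 90:10 water/acetone and dispensed into wells, then infested with about 1-day-old larvae in liver-powder water. Covered plates were held at room temperature for 3 days and each well was scored for mortality against a rating scale; six replicate plates per compound.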

Series [2] concerns Cabbage Looper (Trichoplusia ni, TRIPNI). Briefly: Bioassays on Cabbage Looper (CL), 128-well diet tray assay. Conditions: Trichoplusia ni. Summed up:
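One to five second-instar larvae per well on artificial diet surface-treated with 50 μg/cm^2 test molecule (applied in 90:10 acetone-water, dried). Held 5–7 days at 25° C, 14:10 light-dark; percent mortality recorded per well and averaged over eight wells.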

Series [3] concerns Green Peach Aphid (Myzus persicae, MYZUPE). The experiment in a line: Bioassays on Green Peach Aphid (GPA), foliar spray on cabbage seedlings. The note with it: 72 h. Summed up:
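Percent control (Abbott-corrected versus solvent-sprayed plants) comes from live-aphid counts three days after treatment at about 25° C. Test solution at 200 ppm was sprayed to runoff onto both leaf surfaces of cabbage seedlings infested a day earlier with 20-50 aphids; four replicate pots.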

For series [4], the system named is Beet Armyworm (Spodoptera exigua, LAPHEG). Briefly: Bioassays on Beet Armyworm (BAW), 128-well diet tray assay. The note with it: Spodoptera exigua. Summed up: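 Second-instar larvae, one to five per well, were placed on artificial diet surface-treated with 50 μg/cm^2 compound in 90:10 acetone-water, eight wells per treatment. Trays were held 5–7 days at 25 °C, 14:10 light-dark. Percent mortality per well was averaged over eight wells.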

The mark [5] stands for this setting: Cabbage Looper, Table ABC / ABC-DP rating, read-out: CL rating.
Where [6] appears, read: Green Peach Aphid, Table ABC / ABC-DP rating, read-out: GPA rating.
Where [7] appears, read: Beet Armyworm, Table ABC / ABC-DP rating, read-out: BAW rating.
Where [8] appears, read: Yellow Fever Mosquito, rating class.
[9] abbreviates: Cabbage Looper, rating class, read-out: CL.
Setting [10] is: Green Peach Aphid, rating class, read-out: GPA.
Setting [11] is: Beet Armyworm, rating class, read-out: BAW.

As for `Nc1c(F)ccc(NC(=O)c2cc(NC(=O)[C@H]3[C@H](c4ccc(F)c(C(F)(F)F)c4)C3(Cl)Cl)ccc2Cl)c1F` (relative stereo) [DP8, trans-N-(3-amino-2,4-difluorophenyl)-2-chloro-5-(2,2-dichloro-3-(4-fluoro-3-(trifluoromethyl)phenyl)cyclopropane-1-carboxamido)benzamide], in series [1] (Yellow Fever Mosquito), the YFM rating entry was “A (80–100)”. In series [1] (about 1 day-old larvae, 4000 ppm master solution diluted with 90:10 water/acetone, 15 μL per well plus 220 μL larval mixture, 3 days, mortality), the “YFM % Control (or Mortality) rating” value was “A (80–100)”. Further, the mortality – broadly, the percentage killed – at 50 µg/cm2 in series [2] (168 h, second instar larvae, 50 μg/cm^2 of test molecule on artificial diet, 25° C., five to seven days, average of eight wells, read-out: CL % Control (or Mortality) rating) lay within 50 to 100%; in series [4] (168 h, second instar larvae, 50 μg/cm^2 of test molecule on artificial diet, 25° C., five to seven days, average of eight wells, read-out: BAW % Control (or Mortality) rating) it was 50 to 100%. For the same compound, the pest or weed control at 50 µg/cm2 in series [2] (setting [5]) and in series [4] (setting [7]) was 50 to 100% each time. Besides, the mortality at 200 ppm in series [3] (200 ppm test molecule sprayed on infested cabbage seedlings, three days, Abbott's corrected % control, read-out: GPA % Control (or Mortality) rating) is 80 to 100%. Further, the pest or weed control at 200 µg/mL in series [3] (setting [6]) is 80 to 100%.
As to `Cc1cc(NC(=O)[C@H]2[C@H](c3ccc(F)c(Cl)c3)C2(Cl)Cl)cc(C(=O)NCC(F)(F)C(F)(F)F)c1Cl` (relative stereo) [F2039, trans-2-Chloro-5-(2,2-dichloro-3-(3-chloro-4-fluorophenyl)cyclopropane-1-carboxamido)-3-methyl-N-(2,2,3,3,3-pentafluoropropyl)benzamide], in series [1] (Yellow Fever Mosquito), the YFM rating entry is recorded as “A (80–100)”. Besides, the pest or weed control at 50 µg/cm2 in series [2] (setting [5]) and in series [4] (setting [7]) was 50 to 100% each time. Besides, in series [3] (setting [6]), the pest or weed control at 200 µg/mL lay in the range of 80 to 100%.
Take `CC(=O)Nc1c(F)cc(F)c(NC(=O)c2cc(NC(=O)[C@H]3[C@H](c4ccc(F)c(C(F)(F)F)c4)C3(Cl)Cl)ccc2Cl)c1F` [F1613, N-(3-Acetamido-2,4,6-trifluorophenyl)-2-chloro-5-((1R,3R)-2,2-dichloro-3-(4-fluoro-3-(trifluoromethyl)phenyl)cyclopropane-1-carboxamido)benzamide]: the YFM result in series [1] (setting [8]) is on record as “A (80–100)”. Moreover, the pest or weed control at 50 µg/cm2 in series [2] (setting [9]) and in series [4] (setting [11]) was 50 to 100% each time. In addition, the pest or weed control at 200 µg/mL in series [3] (setting [10]) lay in the range of 80 to 100%.
On to `O=C(Nc1ccc(F)cc1)c1c(Cl)ccc(NC(=O)[C@H]2[C@H](c3ccc(F)c(Cl)c3)C2(Cl)Cl)c1F` [F1465, 6-chloro-3-((1R,3R)-2,2-dichloro-3-(3-chloro-4-fluorophenyl)cyclopropane-1-carboxamido)-2-fluoro-N-(4-fluorophenyl)benzamide], for which the YFM entry in series [1] (setting [8]) is on record as “A (80–100)”. Further, the pest or weed control at 50 µg/cm2 in series [2] (setting [9]) and in series [4] (setting [11]) was 50 to 100% in each case. The pest or weed control at 200 µg/mL in series [3] (setting [10]) was in the range of 80 to 100%.
In the case of `CC(=O)Nc1cc(NC(=O)c2cc(NC(=O)[C@H]3[C@H](c4ccc(Cl)c(Cl)c4)C3(Cl)Cl)ccc2Cl)c(F)cc1F` [F1246, N-(5-Acetamido-2,4-difluorophenyl)-2-Chloro-5-((1R,3R)-2,2-dichloro-3-(3,4-dichlorophenyl)cyclopropane-1-carboxamido)benzamide], the YFM entry in series [1] (Table ABC: Biological Results, species YFM) is “A (80–100)”. Moreover, the pest or weed control at 50 µg/cm2 in series [2] (Table ABC: Biological Results, species CL, read-out: CL) lay in the range of 50 to 100%; in series [4] (Table ABC: Biological Results, species BAW, read-out: BAW), 50 to 100%. Moreover, the pest or weed control at 200 µg/mL in series [3] (Table ABC: Biological Results, species GPA, read-out: GPA) was 80 to 100%.
For the compound `O=C(Cc1ccccc1)Nc1c(F)ccc(NC(=O)c2cc(NC(=O)[C@H]3[C@H](c4ccc(Cl)c(Cl)c4)C3(Cl)Cl)ccc2Cl)c1F` [F1673, 2-Chloro-5-((1R,3R)-2,2-dichloro-3-(3,4-dichlorophenyl)cyclopropane-1-carboxamido)-N-(2,4-difluoro-3-(2-phenylacetamido)phenyl)benzamide], the YFM result in series [1] (setting [8]) was “B (More than 0 – Less than 80)”. Also, the pest or weed control at 50 µg/cm2 in series [2] (setting [9]) and in series [4] (setting [11]) was 50 to 100% in each case. In series [3] (setting [10]), the pest or weed control at 200 µg/mL lay in the range of 0 to 80%.
As to `CC(Br)C(=O)Nc1c(F)ccc(NC(=O)c2cc(NC(=O)[C@H]3[C@H](c4ccc(F)c(C(F)(F)F)c4)C3(Cl)Cl)ccc2Cl)c1F` (stereo partly drawn) [F1479, N-(3-(2-Bromopropanamido)-2,4-difluorophenyl)-2-chloro-5-((1R,3R)-2,2-dichloro-3-(4-fluoro-3-(trifluoromethyl)phenyl)cyclopropane-1-carboxamido)benzamide], the YFM result in series [1] (setting [8]) was “A (80–100)”. The pest or weed control at 50 µg/cm2 in series [2] (setting [9]) and in series [4] (setting [11]) was 50 to 100% in each case. Moreover, the pest or weed control at 200 µg/mL in series [3] (setting [10]) lay in the range of 0 to 80%.
